Series [1] concerns A375, A431, A549, MRC-5 cells. Put plainly: Photocytotoxicity assay, summary across cell lines. The class given is cell-based.
Series [2] in a line: Solubility in demineralized water. The class given is physicochemical. Particulars: read-out: maximum solubility.
Series [3] deals with tubulin. Particulars: polymerization enhancer control.
Excerpt: Raw fluorescence was normalized by initial fluorescence for each sample. Samples consists of the caged drug (not irradiated), the caged drug irradiated with green light, and the caged drug irradiated with blue light.
In this assay, increased fluorescence indicates tubulin polymerization.

In brackets after ≈: the same amount, converted by molar mass.

By EC50 is commonly meant the concentration at which the effect is half-maximal. Higher therefore signals a less potent agent. For the compound `[NH2][Pt]([NH2])([Cl])[Cl]` [CDDP, cisplatin], in series [1] (range across all tested cell lines), the EC50 lay in the range of 0.85 to 3.06 µM.
Turning to `F[P-](F)(F)(F)(F)F.F[P-](F)(F)(F)(F)F.O.[Ru+2].c1ccc(-c2cccc(-c3ccccn3)n2)nc1.c1ccc(-c2ccccn2)nc1` [[3](PF6)2], in series [1] (all tested cell lines), the “activity across all tested cell lines” value is given as “no activity”.
A word on the solubility: it is how much of the substance goes into solution per volume. For `CSCCCc1nc(=O)c2c(-c3ccccc3)c(C(=O)c3ccccc3)[nH]c2[nH]1` [compound 1], in series [2], the solubility was determined as 10 µM (≈ 4.04 µg/mL).
For `CC(=O)O[C@H]1C(=O)[C@@]2(C)[C@H]([C@H](OC(=O)c3ccccc3)[C@]3(O)C[C@H](OC(=O)[C@H](O)[C@@H](NC(=O)c4ccccc4)c4ccccc4)C(C)=C1C3(C)C)[C@]1(OC(C)=O)CO[C@@H]1C[C@@H]2O` [paclitaxel, reference compound], the tubulin polymerization result in series [3] was “induces rapid polymerization of tubulin”.

For the origin of these results see patent publication US10781226B2, “Photoactivatable cancer prodrug” (Texas State University, priority 2017, dated 2020).
